Where two headings read alike, the source gives them in different places.
How the values were obtained:
BCL6 BTB domain = BCL6 BTB domain (Homo sapiens (Human), UniProt P41182); assay: Surface plasmon resonance (SPR) assay; format: binding; conditions: BCL6 BTB domain captured on SA chip, single cycle kinetics
Karpas422 cells = assay: Tumor cell growth inhibition assay; format: cell-based; conditions: Homo sapiens, KARPAS-422, 144 h
How it was run: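 Karpas422 cells (2,000/well) in Alpha-MEM with 10% FBS dosed across 10 concentrations (top 5 uM) and grown six days at 37° C., 5% CO2. Viability read as ATPlite luminescence.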

[1] = test system: BCL6 reporter construct (3xBCL6-TK-Luc) in SuDHL4 cells; assay: Cell-based luciferase assay
How it was run: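 SuDHL4 cells stably carrying a 3×BCL6-site TK-promoter firefly luciferase reporter, seeded at 15,000 cells/well, were dosed over a 10-point range (top 10 uM) and grown two days at 37 °C, 5% CO2. Luminescence then read after adding neolite reagent at room temperature.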

[2] = read-out: Tumor Growth Inhibition in Karpas-422 (IC50, uM), Karpas422 cells, six days, ATPlite
[3] = Homo sapiens, SU-DHL-4, 48 h, read-out: Luciferase-Assay EC50, uM), SuDHL4-3xBCL6-TK-Luc cells, two days, high dose 10 uM

| SMILES | Kd (BCL6 BTB domain) | IC50 (Karpas422 cells; [2]) | EC50 [1, 3] | IC50 (Karpas422 cells; Karpas422 cells, six days, ATPlite, read-out: Tumor Growth Inhibition in Karpas-422 (IC50)) | EC50 ([1]; Homo sapiens, SU-DHL-4, 48 h, SuDHL4-3xBCL6-TK-Luc cells, two days, high dose 10 uM, read-out: Luciferase-Assay EC50) |
| --- | --- | --- | --- | --- | --- |
| C[C@@H]1CN(C)C[C@H](C)N1c1cc(NC(=O)Cn2cc(-c3cc(C(N)=O)c(O)c(F)c3F)c3c(=O)n(C)cnc32)c(Cl)c(F)n1 [Compound I-229] | 16.3 nM | 0.0784 µM | 0.102 µM | – | – |
| Cn1cnc2c(c(-c3cc(Cl)c(O)c(C(N)=O)c3)cn2CC(=O)Nc2cc(N3CCCC3)nc(F)c2Cl)c1=O [Compound I-418] | 22.1 nM | 0.303 µM | 0.663 µM | – | – |
| CCCN1CCN(c2cc(NC(=O)Cn3cc(-c4cc(C(N)=O)c(O)c(F)c4F)c4c(=O)n(C)cnc43)c(Cl)cn2)[C@@H](C)C1 [Compound I-394] | 38.4 nM | 0.269 µM | 0.313 µM | – | – |
| CC(C)N1CCN(c2cc(NC(=O)Cn3cc(-c4cc(Cl)c(O)c(C(N)=O)c4)c4c(=O)n(C)cnc43)c(Cl)cn2)[C@@H](C)C1 [Compound I-271] | 16 nM | 0.22 µM | 0.208 µM | – | – |
| CN1CC2CC(C1)N2c1cc(NC(=O)Cn2cc(-c3cc(Cl)c(O)c(C(N)=O)c3)c3c(=O)n(C)cnc32)c(Cl)cn1 [Compound I-449] | 60.3 nM | 1.97 µM | 2.48 µM | – | – |
| C[C@H]1COCCN1c1cc(NC(=O)Cn2cc(-c3cc(Cl)c(O)c(C(N)=O)c3)c3c(=O)n(CC#Cc4cnn(C)c4)cnc32)c(Cl)cn1 [Compound I-82] | 6 nM | 0.034 µM | 0.133 µM | – | – |
| Cn1cnc2c(c(-c3cc(C(N)=O)c(O)cc3F)cn2CC(=O)Nc2cc(N3CC4CCC(C3)O4)ncc2Cl)c1=O [Compound I-162] | 84.7 nM | 0.643 µM | 0.676 µM | – | – |
| CN1CCN(c2cc(NC(=O)Cn3cc(-c4cc(C(N)=O)c(O)c(F)c4F)c4c(=O)n(C)cnc43)c(Cl)cn2)CC1 [Compound I-231] | 89.9 nM | 1.18 µM | 1.47 µM | – | – |
| C[C@H]1COCCN1c1cc(NC(=O)Cn2cc(-c3cc(F)c(O)c(C(N)=O)c3)c3c(=O)n(C)cnc32)c(Cl)cn1 [Compound I-157] | 6.1 nM | 0.148 µM | 0.18 µM | – | – |
| C[C@H]1COCCN1c1cc(NC(=O)Cn2cc(-c3cc(C(N)=O)c(O)c(F)c3F)c3c(=O)n(CC#Cc4cnn(C)c4)cnc32)c(Cl)cn1 [Compound I-321] | 9.19 nM | 0.437 µM | 0.405 µM | – | – |
| Cn1cnc2c(c(-c3cc(Cl)c(O)c(C(N)=O)c3)cn2CC(=O)Nc2cc(N3C4COCC5CC543)ncc2Cl)c1=O (stereo not drawn) [Compound I-281] | 60.8 nM | – | – | 2.18 µM | 2.88 µM |
| Cn1cnc2c(c(-c3cc(Cl)c(O)c(C(N)=O)c3)cn2CC(=O)Nc2cc(N3C[C@H]4CC[C@@H](C3)N4CC(F)(F)F)ncc2Cl)c1=O [Compound I-474] | 35.8 nM | 0.237 µM | 0.216 µM | – | – |
| C[C@H]1COCCN1c1cc(NC(=O)Cn2cc(-c3cc(C(N)=O)c(O)c(Cl)c3F)c3c(=O)n(C)cnc32)c(Cl)c(F)n1 [Compound I-409] | 95.2 nM | 1.82 µM | 2.34 µM | – | – |
| COCCN1CCN(c2cc(NC(=O)Cn3cc(-c4cc(F)c(O)c(C(N)=O)c4)c4c(=O)n(C)cnc43)c(Cl)cn2)[C@@H](C)C1 [Compound I-416] | 2.73 nM | 0.0592 µM | 0.0787 µM | – | – |
| C[C@H]1CN(C2CCC2)CCN1c1cc(NC(=O)Cn2cc(-c3cc(Cl)c(O)c(C(N)=O)c3)c3c(=O)n(C)cnc32)c(Cl)cn1 [Compound I-358] | 22.7 nM | 0.341 µM | 0.256 µM | – | – |
| CCN1CCN(c2cc(NC(=O)Cn3cc(-c4cc(F)c(O)c(C(N)=O)c4)c4c(=O)n(C)cnc43)c(Cl)c(F)n2)[C@@H](C)C1 [Compound I-428] | 2.35 nM | 0.0682 µM | 0.102 µM | – | – |
| Cn1cnc2c(c(-c3cc(Cl)c(O)c(C(N)=O)c3)cn2CC(=O)Nc2nc(N3CCOCC3)c(F)cc2Cl)c1=O [Compound I-328] | 239 nM | 2.66 µM | 3.76 µM | – | – |
| CN1CC2CCC(C1)N2c1cc(NC(=O)Cn2cc(-c3cc(Cl)c(O)c(C(N)=O)c3)c3c(=O)n(C)c(C(F)(F)F)nc32)c(Cl)cn1 [Compound I-396] | 226 nM | 0.749 µM | 0.683 µM | – | – |
| Cn1cnc2c(c(-c3cc(Cl)c(O)c(C(N)=O)c3)cn2CC(=O)Nc2cc(N3CCOC4CC43)ncc2Cl)c1=O (stereo not drawn) [Compound I-244] | 8.46 nM | 0.169 µM | 0.279 µM | – | – |
| CO[C@H]1CN(c2cc(NC(=O)Cn3cc(-c4cc(Cl)c(O)c(C(N)=O)c4)c4c(=O)n(C)c(C(F)(F)F)nc43)c(Cl)cn2)C[C@H]1F [Compound I-387] | 189 nM | 1.04 µM | 1.12 µM | – | – |
